Results published in patent US12539279B2, “Supramolecular ionizable lipid molecules with heteroatomic tuning for nucleic acid delivery” (priority 2023, dated 2026).

Columns and labels:
[1] = mRNA encapsulation efficiency (modified Quant-iT RiboGreen assay); assay type: physicochemical; conditions: LNP before freezing
Protocol: For LNPs encapsulating mRNA, mRNA concentration and encapsulation efficiency were determined using a modified Quant-iT RiboGreen assay (Invitrogen). The assay was performed in triplicates in a 96 well plate. 12 μL of the LNP sample or TE buffer (composed of 10 mM Tris-HCl containing 1 mM EDTA·Na2) (blank sample) was diluted in 300 μL of 1×TE buffer pH 7.5. 50 μL of the diluted samples were transferred to 6 separate wells and either 50 μL of TE buffer or 50 μL of a 4% Triton X-100 solution in TE buffer was added to the wells. Two 6-point standard curves ([…]) were prepared in the same plate by diluting Firefly luciferase mRNA to a final volume of 100 μL in 2% Triton X-100 or TE buffer. The plate was then incubated for 10 min at 40° C. with gentle shaking. The Ribogreen reagent was diluted 1:100 in TE buffer, and 100 μL of this solution was added to each well. […] Fluorescence intensity was measured with a plate reader at an excitation wavelength of 480 nm and an emission wavelength of 525 nm. The raw fluorescence values were subtracted by the background fluorescence (blank sample). The concentration of free mRNA and total mRNA were determined by linear interpolation of the appropriate standard curve. Encapsulation efficiency was determined by dividing the calculated concentration of encapsulated mRNA by the total mRNA concentration in the LNP sample.

[2] = assay type: physicochemical
Protocol: Determination of the apparent pKa of LNPs was carried out using a TNS assay. Briefly, a series of buffers was generated by titrating a solution containing 10 mM citrate, 10 mM phosphate, 10 mM borate, and 150 mM NaCl with 1.0 M HCl. Aliquots of this combined buffer were taken to generate 12 total buffers ranging from pH 4.0 to 9.5 in increments of 0.5 pH. LNPs (diluted to 100 uM of ionizable lipid in distilled water) and 6-(p-toluidino)-2-naphthalenesulfonic acid (TNS, Sigma Aldrich, 60 uM in distilled water) were diluted into these buffers to a final concentration of 9 and 5.45 μM, respectively. The plate was covered and equilibrated at room temperature for 20 min. Fluorescence intensity was determined using a BioTek H1 Synergy plate reader (325 nm excitation/435 nm emission). The raw fluorescence values were fit using GraphPad Prism 8 to determine pKa, which corresponds to the pH value at 50% max fluorescence.

[3] = system: firefly luciferase protein expression; assay: Intramuscular expression profile of formulated firefly luciferase mRNA in mice (IVIS); assay type: in vivo, BALB/c mice; conditions: intramuscular firefly luciferase mRNA-LNP
Protocol: All procedures used in animal studies conducted at the University of Toronto were approved by Institutional Animal Care and Use committee (IACUC) under protocol number 20012621 and comply with all applicable local, provincial, and federal regulations. Female BALB/c mice (7-8 weeks old) were purchased from Charles River Laboratories and acclimated for 1 to 2 weeks before initiation of the study.
Mice (n=4) were injected in both quadriceps with 0.5 μg of formulated firefly luciferase mRNA in 50 μL. At various timepoints (6 hours, 24 hours, 48 hours, and 96 hours post-dose), mice were injected intraperitoneally with 3 mg D-Luciferin (Thermo Scientific 88291) in 200 μL 1×PBS. 5 minutes later, mice were anesthetized and imaged on an in vivo imaging system (PerkinElmer, IVIS Spectrum) to measure total bioluminescent flux (photons/second) in each hindlimb (FIG. 2). The area under curve (AUC) for individual hindlimbs was determined with GraphPad Prism 9.

[4] = system: THP-1 monocytes; assay type: cell-based, human; conditions: THP-1, 500 ng/well mRNA, 24 hours post-transfection
Protocol: THP-1 monocytes are human cells isolated from the peripheral blood of a patient with acute monocytic leukemia. […] Cells were plated at a density of 100,000 cells per well in a 96-well plate and transfected in quadruplicates with 500 ng/well of firefly luciferase mRNA formulated in lipid nanoparticles. Cell viability and firefly luciferase expression were determined after 24 hours with a plate reader assay, following the manufacturer's protocol (Promega E7110).

Row | Compound | mRNA encapsulation efficiency relative to amide analogue (Compound I-12) [1] | Apparent pKa relative to amide analogue (Compound I-12 / F16) [2] | intramuscular expression (in words) [3] | cell viability / toxicity [4]
1 | CCCCCCCCCCN(CCCCCCCCCC)CCOC(=O)CCN(CCO)CCC(=O)OCCN(CCCCCCCCCC)CCCCCCCCCC [Compound I-1] | significantly reduced | significantly reduced | significantly reduced intramuscular expression | –
2 | CCCCCCCCCCN(CCCCCCCCCC)CCOC(=O)CCCN(CCO)CCCC(=O)OCCN(CCCCCCCCCC)CCCCCCCCCC [Compound I-3] | – | – | higher intramuscular expression than DLin-MC3-DMA | significant cell death
